Results on 18 molecules are retold here after patent EP0182317A2, “Antineoplastic agent” (priority 1984, dated 1986).

One data set relates to Ehrlich carcinoma. The data set is described as follows: Antineoplastic effect on Ehrlich carcinoma in mice (survival, T/C percent). As to conditions: in the abdomen once a day for 7 days; for response vs control in vivo at 2 mg/kg / response vs control in vivo at 4 mg/kg / response vs control in vivo at 8 mg/kg / response vs control in vivo at 16 mg/kg / response vs control in vivo at 1 mg/kg / response vs control in vivo at 32 mg/kg: Mus musculus, Ehrlich, ip, 720 h. Type of data set: in vivo, male ICR mouse. Here is the method:
Antineoplastic effect on Ehrlich carcinoma:
(§1) About 10^6/0.2 ml of Ehrlich carcinoma cells were placed in an abdomen of each male ICR mouse of 5 weeks old. On the next day the administration of the test sample in the abdomen was started. The test sample was given once a day for 7 days. For an untreated group, a physiological saline solution was given in the same manner as above. […] The T/C percent (T/C x 100) was determined from the average survival periods (days) of the treated group and control group. Further, 50 % lethal dose (LD50) was determined from the number of the mice which died of toxicity of the test samples administered.

Data set [1] can be described thus: 50 % lethal dose from toxic deaths in the Ehrlich carcinoma experiment. Type of data set: in vivo, male ICR mouse. As to conditions: mice bearing Ehrlich carcinoma, in the abdomen once a day for 7 days; for LD50 at 720 h: mouse, in vivo, ip; for LD50: 43200 min. Here is the method: as §1
[2] abbreviates: dose 2.0 mg/kg, observation period 30 days.
[3] abbreviates: dose 2.0 mg/kg, observation period 60 days.
[4] abbreviates: dose 4.0 mg/kg, observation period 30 days.
[5] abbreviates: dose 4.0 mg/kg, observation period 60 days.
The mark [6] stands for this setting: dose 8.0 mg/kg, observation period 30 days.
[7] abbreviates: dose 8.0 mg/kg, observation period 60 days.
Setting [8] is: dose 1.0 mg/kg, observation period 60 days.

`O=[Se](O)c1ccccc1` [Compound 1, phenylseleninic acid]: the response vs control in vivo at 2 mg/kg in the data set with Ehrlich carcinoma (setting [2]) and with Ehrlich carcinoma (setting [3]) was 123% throughout. For the same molecule, the response vs control in vivo at 4 mg/kg with Ehrlich carcinoma (setting [4]) and in the data set with Ehrlich carcinoma (setting [5]) was 129% in each case. The response vs control in vivo at 8 mg/kg with Ehrlich carcinoma (setting [6]) and in the data set on Ehrlich carcinoma (setting [7]) was 141% each time. Also, the response vs control in vivo at 16 mg/kg in the data set with Ehrlich carcinoma (observation period 30 days) and in the data set on Ehrlich carcinoma (observation period 60 days) was 149% throughout. Moreover, the LD50 at 720 h in data set [1] is more than 16 mg/kg.
Regarding `O=[Se](OCCCl)OCCCl` [Compound 12, di(2-chloroethyl) selenite], the response vs control in vivo at 2 mg/kg with Ehrlich carcinoma (setting [3]) stood at 197%. This molecule registered a response vs control in vivo at 4 mg/kg in the data set with Ehrlich carcinoma (setting [5]) of 225%. The molecule also returned a response vs control in vivo at 8 mg/kg in the data set with Ehrlich carcinoma (setting [7]) of 194%. For the same molecule, in the data set on Ehrlich carcinoma (observation period 60 days), the response vs control in vivo at 16 mg/kg is 65%. Moreover, the LD50 at 720 h in data set [1] was 8 mg/kg.
Regarding `CC1CO[Se](=O)O1` (centres unmarked) [Compound 15, 1,2-propanediol selenite], the response vs control in vivo at 1 mg/kg in the data set on Ehrlich carcinoma (setting [8]) turned out to be 227%. For the same molecule, in the data set with Ehrlich carcinoma (setting [3]), the response vs control in vivo at 2 mg/kg is 258%. For the same molecule, the response vs control in vivo at 4 mg/kg with Ehrlich carcinoma (setting [5]) came out at 204%. For the same molecule, the response vs control in vivo at 8 mg/kg with Ehrlich carcinoma (setting [7]) was 105%. This molecule also had an LD50 at 720 h in data set [1] of 8 mg/kg.
As for “selenium tetrachloride·pyridine complex [Compound 21]”, the “Antineoplastic effect (T/C percent)” value in the data set with Ehrlich carcinoma (setting [3]) was found to be 155%; with Ehrlich carcinoma (setting [5]), 217%; in the data set on Ehrlich carcinoma (setting [7]), 246%. For the same molecule, the LD50 in data set [1] is reported as 8-16 mg/kg/day x7.
As to “selenium oxychloride·quinoline complex [Compound 5]”, the “Antineoplastic effect (T/C percent)” value is 131.4% with Ehrlich carcinoma (setting [2]); 131% in the data set on Ehrlich carcinoma (setting [3]); 156.0% with Ehrlich carcinoma (setting [4]); 199% in the data set on Ehrlich carcinoma (setting [5]); 181.8% in the data set on Ehrlich carcinoma (setting [6]); 269% with Ehrlich carcinoma (setting [7]). The LD50 in data set [1] is more than 16 mg/kg/day x7.
`CCCO[Se](=O)OCCC` [Compound 10, di(n-propyl) selenite] had a response vs control in vivo at 2 mg/kg with Ehrlich carcinoma (setting [3]) of 175%. In the data set on Ehrlich carcinoma (setting [5]), this molecule had a response vs control in vivo at 4 mg/kg of 170%. This molecule registered a response vs control in vivo at 8 mg/kg in the data set with Ehrlich carcinoma (setting [7]) of 102%. Moreover, the response vs control in vivo at 16 mg/kg in the data set on Ehrlich carcinoma (observation period 60 days) is 14%. In data set [1], this molecule came in with an LD50 at 720 h of 8 mg/kg.
In the case of selenium tetrabromide [Compound 20], the “Antineoplastic effect (T/C percent)” value was determined as 196% in the data set on Ehrlich carcinoma (setting [3]), 272% in the data set with Ehrlich carcinoma (setting [5]) and 183% with Ehrlich carcinoma (setting [7]). The LD50 in data set [1] is recorded as 8-16 mg/kg/day x7.
Consider `CCO[Se](=O)c1ccccc1` (centres unmarked) [Compound 2, ethyl phenylseleninate], for which the response vs control in vivo at 4 mg/kg in the data set on Ehrlich carcinoma (setting [4]) and in the data set on Ehrlich carcinoma (setting [5]) was 118% each time. Moreover, the response vs control in vivo at 8 mg/kg in the data set with Ehrlich carcinoma (setting [6]) and in the data set on Ehrlich carcinoma (setting [7]) was 134% in each case. In addition, the figures for the response vs control in vivo at 32 mg/kg in the data set with Ehrlich carcinoma (observation period 30 days) and in the data set on Ehrlich carcinoma (observation period 60 days) were 87.9% and 88%, respectively. Moreover, the results for the response vs control in vivo at 16 mg/kg in the data set on Ehrlich carcinoma (observation period 30 days) and in the data set with Ehrlich carcinoma (observation period 60 days) were 150% and 193%, respectively. The molecule also gave an LD50 at 720 h in data set [1] of 16 to 32 mg/kg.
`CCO[Se](=O)OCC` [Compound 9, diethyl selenite]: the response vs control in vivo at 2 mg/kg in the data set with Ehrlich carcinoma (setting [3]) was determined as 246%. Also, the response vs control in vivo at 4 mg/kg in the data set with Ehrlich carcinoma (setting [5]) stood at 203%. This molecule also gave a response vs control in vivo at 8 mg/kg with Ehrlich carcinoma (setting [7]) of 201%. Also, the response vs control in vivo at 16 mg/kg in the data set on Ehrlich carcinoma (observation period 60 days) worked out at 14%. Besides, the LD50 at 720 h in data set [1] is 4 to 8 mg/kg.
On to “selenium oxychloride·isoquinoline complex [Compound 6]”, for which the “Antineoplastic effect (T/C percent)” value in the data set on Ehrlich carcinoma (setting [2]) is recorded as 158.5%; in the data set on Ehrlich carcinoma (setting [3]), 211%; with Ehrlich carcinoma (setting [4]) it was 164.8%; in the data set on Ehrlich carcinoma (setting [5]), 206%; in the data set with Ehrlich carcinoma (setting [6]), 162.9%; in the data set with Ehrlich carcinoma (setting [7]), 187%.
For `O=[Se]1OCCCO1` [Compound 17, 1,3-propanediol selenite], the response vs control in vivo at 1 mg/kg with Ehrlich carcinoma (setting [8]) is 174%. Moreover, the response vs control in vivo at 2 mg/kg in the data set on Ehrlich carcinoma (setting [3]) is 221%. This molecule also displayed a response vs control in vivo at 4 mg/kg in the data set with Ehrlich carcinoma (setting [5]) of 197%. Moreover, the response vs control in vivo at 8 mg/kg in the data set with Ehrlich carcinoma (setting [7]) is 83%. In data set [1], this molecule had an LD50 at 720 h of 4 to 8 mg/kg.
For the molecule selenium tetrachloride [Compound 19], the “Antineoplastic effect (T/C percent)” value amounted to 167% in the data set on Ehrlich carcinoma (setting [8]), 179% in the data set on Ehrlich carcinoma (setting [3]), 249% in the data set on Ehrlich carcinoma (setting [5]) and 183% in the data set on Ehrlich carcinoma (setting [7]). This molecule also had an LD50 in data set [1] of more than 16 mg/kg/day x7.
In the case of “selenium oxybromide·dioxane complex [Compound 8]”, the “Antineoplastic effect (T/C percent)” value is 182% in the data set on Ehrlich carcinoma (setting [3]), 226% with Ehrlich carcinoma (setting [5]) and 228% with Ehrlich carcinoma (setting [7]). Besides, the LD50 in data set [1] is on record as 8 - 16 mg/kg/day x7.
Consider “2,2-dimethyl-1,3-propanediol selenite [Compound 18]”, for which the “Antineoplastic effect (T/C percent)” value with Ehrlich carcinoma (setting [8]) is on record as 164%; with Ehrlich carcinoma (setting [3]), 193%; in the data set with Ehrlich carcinoma (setting [5]), 194%; in the data set with Ehrlich carcinoma (setting [7]), 194%.
Molecule `CC(Cl)CO[Se](=O)OCC(C)Cl` (centres unmarked) [Compound 13, di(2-chloropropyl) selenite] showed a response vs control in vivo at 2 mg/kg in the data set on Ehrlich carcinoma (setting [3]) of 190%. The molecule also had a response vs control in vivo at 4 mg/kg with Ehrlich carcinoma (setting [5]) of 234%. Moreover, the response vs control in vivo at 8 mg/kg in the data set with Ehrlich carcinoma (setting [7]) stood at 219%. The molecule also displayed a response vs control in vivo at 16 mg/kg in the data set with Ehrlich carcinoma (observation period 60 days) of 71%. This molecule also registered an LD50 at 720 h in data set [1] of 8 to 16 mg/kg.
The corresponding values for `CC(C)O[Se](=O)OC(C)C` [Compound 11, diisopropyl selenite] are 204%, 236%, 126%, 14% and 4 to 8 mg/kg.
With 2,3-butanediol selenite [Compound 16], the “Antineoplastic effect (T/C percent)” value stood at 185% in the data set on Ehrlich carcinoma (setting [8]), 216% in the data set on Ehrlich carcinoma (setting [3]), 261% in the data set with Ehrlich carcinoma (setting [5]) and 174% in the data set with Ehrlich carcinoma (setting [7]).
For “selenium oxychloride·dioxane complex [Compound 7]”, the “Antineoplastic effect (T/C percent)” value stood at 211% in the data set with Ehrlich carcinoma (setting [3]), 225% with Ehrlich carcinoma (setting [5]) and 194% with Ehrlich carcinoma (setting [7]). For the same molecule, in data set [1], the LD50 is 8 - 16 mg/kg/day x7.
